Data taken from patent publication US20220281841A1, “ETHYNYLHETEROCYCLES AS RHO-ASSOCIATED COILED-COIL KINASE (ROCK) INHIBITORS” (Angion Biomedica Corp., priority 2019, published 2022).
Counter-ions that a name gives are not always drawn. Like-named read-outs stand apart in the source and are kept apart here.

Experiments:
ROCK1 = target: T1, ROCK1 (Homo sapiens, UniProt Q13464); assay: ROCK1 kinase binding affinity, DiscoverX KINOMEscan KdELECT; conditions: equilibrium dissociation constant, 11-point 3-fold dilution series
T1 construct: purchased DiscoverX (KINOMEscan KdELECT service); host or cells: E. coli BL21-derived (T7 phage) or HEK-293
Protocol: (§1) 1. ROCK1 and ROCK2 kinase assays: The ROCK1 and ROCK2 kinase binding affinities of compounds in this invention were determined by DiscoverX's KINOMEscan™ KdELECT technology (https://www.discoverx.com/kinomescan-elect-kinase-screening-and-profiling-services): Kinase-tagged T7 phage strains were prepared in an E. coli host derived from the BL21 strain. E. coli were grown to log-phase and infected with T7 phage and incubated with shaking at 32° C. until lysis. The lysates were centrifuged and filtered to remove cell debris. The remaining kinases were produced in HEK-293 cells and subsequently tagged with DNA for qPCR detection. Streptavidin-coated magnetic beads were treated with biotinylated small molecule ligands for 30 minutes at room temperature to generate affinity resins for kinase assays. The liganded beads were blocked with excess biotin and washed with blocking buffer (SeaBlock (Pierce), 1% BSA, 0.05% Tween 20, 1 mM DTT) to remove unbound ligand and to reduce nonspecific binding. […] Test compounds were prepared as 111X stocks in 100% DMSO. Kds were determined using an 11-point 3-fold compound dilution series with three DMSO control points. […] The compounds were then diluted directly into the assays such that the final concentration of DMSO was 0.9%. All reactions performed in polypropylene 384-well plate. Each was a final volume of 0.02 ml. […] The kinase concentration in the eluates was measured by qPCR.

ROCK2 = target: T2, ROCK2 (Homo sapiens, UniProt O75116); assay: ROCK2 kinase binding affinity, DiscoverX KINOMEscan KdELECT; conditions: for ROCK 2 Selectivity: ROCK2 over ROCK1, from Kd values, N/C = not calculated
T2 construct: purchased DiscoverX (KINOMEscan KdELECT service); host or cells: E. coli BL21-derived (T7 phage) or HEK-293
Protocol: as §1

[1] = equilibrium dissociation constant, 11-point 3-fold dilution series, read-out: Kd (μM) ROCK2

T1 sequence (Q13464 whole entry): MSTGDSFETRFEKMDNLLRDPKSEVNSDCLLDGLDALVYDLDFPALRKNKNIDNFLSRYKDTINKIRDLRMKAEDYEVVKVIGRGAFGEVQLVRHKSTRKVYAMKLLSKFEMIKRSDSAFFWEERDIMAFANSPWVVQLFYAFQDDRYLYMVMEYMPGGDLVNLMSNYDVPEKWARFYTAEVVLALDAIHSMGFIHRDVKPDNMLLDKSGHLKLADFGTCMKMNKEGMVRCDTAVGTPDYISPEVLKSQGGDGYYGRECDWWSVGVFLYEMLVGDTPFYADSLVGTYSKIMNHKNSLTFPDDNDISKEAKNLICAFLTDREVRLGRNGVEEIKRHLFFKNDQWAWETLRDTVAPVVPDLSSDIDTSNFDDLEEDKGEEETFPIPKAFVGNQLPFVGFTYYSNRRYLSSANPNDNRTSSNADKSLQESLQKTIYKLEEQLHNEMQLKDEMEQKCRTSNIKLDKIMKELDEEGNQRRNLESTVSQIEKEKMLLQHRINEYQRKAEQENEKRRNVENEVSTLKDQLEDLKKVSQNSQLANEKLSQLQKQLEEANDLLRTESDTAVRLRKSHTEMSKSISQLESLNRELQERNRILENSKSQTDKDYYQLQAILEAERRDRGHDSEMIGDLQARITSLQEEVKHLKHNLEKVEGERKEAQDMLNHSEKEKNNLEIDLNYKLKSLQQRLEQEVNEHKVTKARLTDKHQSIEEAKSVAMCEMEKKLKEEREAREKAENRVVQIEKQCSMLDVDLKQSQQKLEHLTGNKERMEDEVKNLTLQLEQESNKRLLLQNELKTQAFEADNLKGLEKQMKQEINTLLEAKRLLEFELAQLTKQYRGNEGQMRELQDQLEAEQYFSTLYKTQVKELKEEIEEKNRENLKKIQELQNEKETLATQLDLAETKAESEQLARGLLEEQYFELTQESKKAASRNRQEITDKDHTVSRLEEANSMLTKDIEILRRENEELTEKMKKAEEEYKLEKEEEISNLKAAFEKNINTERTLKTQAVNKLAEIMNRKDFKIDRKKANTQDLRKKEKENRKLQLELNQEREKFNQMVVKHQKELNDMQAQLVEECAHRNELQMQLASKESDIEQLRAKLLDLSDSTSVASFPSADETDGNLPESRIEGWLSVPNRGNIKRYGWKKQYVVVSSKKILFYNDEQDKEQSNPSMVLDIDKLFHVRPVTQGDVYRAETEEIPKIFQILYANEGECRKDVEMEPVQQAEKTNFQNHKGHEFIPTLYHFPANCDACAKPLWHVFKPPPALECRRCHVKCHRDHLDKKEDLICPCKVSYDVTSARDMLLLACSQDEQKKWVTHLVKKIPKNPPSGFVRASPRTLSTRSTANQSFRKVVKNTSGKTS
T2 sequence (O75116 whole entry): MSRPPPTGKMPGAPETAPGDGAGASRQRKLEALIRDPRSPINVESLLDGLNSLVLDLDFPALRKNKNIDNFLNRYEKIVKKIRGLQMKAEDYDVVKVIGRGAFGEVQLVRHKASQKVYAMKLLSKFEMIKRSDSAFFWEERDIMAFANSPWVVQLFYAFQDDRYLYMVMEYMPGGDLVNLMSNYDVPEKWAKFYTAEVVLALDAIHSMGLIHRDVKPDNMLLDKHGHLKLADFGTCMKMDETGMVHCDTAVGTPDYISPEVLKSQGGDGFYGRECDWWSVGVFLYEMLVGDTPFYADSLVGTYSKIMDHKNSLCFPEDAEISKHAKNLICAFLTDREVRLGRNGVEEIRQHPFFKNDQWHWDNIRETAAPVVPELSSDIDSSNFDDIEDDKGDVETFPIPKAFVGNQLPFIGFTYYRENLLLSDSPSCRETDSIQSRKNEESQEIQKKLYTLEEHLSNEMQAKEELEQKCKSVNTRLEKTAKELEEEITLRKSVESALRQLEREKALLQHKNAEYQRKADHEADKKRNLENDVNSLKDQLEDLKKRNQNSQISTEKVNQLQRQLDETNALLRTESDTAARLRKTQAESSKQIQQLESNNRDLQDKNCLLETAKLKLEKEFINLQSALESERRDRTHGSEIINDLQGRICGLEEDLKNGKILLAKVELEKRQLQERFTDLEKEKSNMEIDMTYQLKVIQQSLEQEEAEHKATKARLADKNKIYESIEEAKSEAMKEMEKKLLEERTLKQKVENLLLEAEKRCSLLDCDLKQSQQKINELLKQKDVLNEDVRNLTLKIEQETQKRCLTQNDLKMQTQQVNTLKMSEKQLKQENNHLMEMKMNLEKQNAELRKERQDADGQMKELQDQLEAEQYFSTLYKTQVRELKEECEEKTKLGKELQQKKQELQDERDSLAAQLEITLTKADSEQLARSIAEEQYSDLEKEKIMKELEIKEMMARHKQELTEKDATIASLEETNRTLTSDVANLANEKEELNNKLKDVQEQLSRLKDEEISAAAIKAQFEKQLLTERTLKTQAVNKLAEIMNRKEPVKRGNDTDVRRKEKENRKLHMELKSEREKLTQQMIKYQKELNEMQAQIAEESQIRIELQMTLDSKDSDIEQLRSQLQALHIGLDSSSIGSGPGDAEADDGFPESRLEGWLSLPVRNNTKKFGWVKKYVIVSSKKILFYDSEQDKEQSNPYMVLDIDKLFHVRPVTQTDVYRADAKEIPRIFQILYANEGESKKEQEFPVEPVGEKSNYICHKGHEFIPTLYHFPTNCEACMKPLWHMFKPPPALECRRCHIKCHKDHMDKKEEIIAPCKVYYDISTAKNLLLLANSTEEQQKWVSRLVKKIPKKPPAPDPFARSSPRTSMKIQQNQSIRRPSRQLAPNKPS

Row | SMILES | Kd (ROCK1) [µM] | ROCK 2 Selectivity (ROCK2) | Kd (ROCK2; [1]) [µM] | Kd (ROCK2) [µM]
1 | Fc1ccc2c(c1)CN(c1nccc(-c3nccc(C#Cc4cnc5[nH]ncc5c4)n3)n1)C2 [Ex. 32, 5-((2′-(5-Fluoroisoindolin-2-yl)-[2,4′-bipyrimidin]-4-yl)ethynyl)-1H-pyrazolo[3,4-b]pyridine] | > 30 | >103 | 0.29 | 
2 | CNC(=O)c1ccc(C#Cc2ccnc(-c3ccnc(N4Cc5ccc(OC)cc5C4)n3)n2)cc1 [Ex. 11, 4-((2′-(5-Methoxyisoindolin-2-yl)-[2,4′-bipyrimidin]-4-yl)ethynyl)-N-methylbenzamide] | > 30 |  | > 30 | 
3 | Clc1cc2c(cn1)CN(c1nccc(-c3nccc(C#Cc4ccc5[nH]ncc5c4)n3)n1)C2 [Ex. 17, 5-((2′-(6-Chloro-1,3-dihydro-2H-pyrrolo[3,4-c]pyridin-2-yl)-[2,4′-bipyrimidin]-4-yl)ethynyl)-1H-indazole] | > 6 | >122 | 0.049 | 
4 | C(#Cc1ccnc(-c2ccnc(N3CCC(c4ccccc4)C3)n2)n1)c1ccc2[nH]ncc2c1 (stereo not shown) [Ex. 69, 5-((2′-(3-Phenylpyrrolidin-1-yl)-[2,4′-bipyrimidin]-4-yl)ethynyl)-1H-indazole] | 9.4 | 36.2 | 0.26 | 
5 | C(#Cc1ccnc(-c2ccnc(N3Cc4ncsc4C3)n2)n1)c1ccc2[nH]ncc2c1 [Ex. 65, 5-(4-((1H-Indazol-5-yl)ethynyl)-[2,4′-bipyrimidin]-2′-yl)-5,6-dihydro-4H-pyrrolo[3,4-d]thiazole] | 3.4 | 142 | 0.024 | 
6 | C(#Cc1ccnc(-c2ccnc(N3CCN(c4nccs4)CC3)n2)n1)c1ccc2[nH]ncc2c1 [Ex. 63, 2-(4-(4-((1H-Indazol-5-yl)ethynyl)-[2,4′-bipyrimidin]-2′-yl)piperazin-1-yl)thiazole] | > 30 | >90.9 | 0.33 | 
7 | COc1ccc2c(c1)CN(c1nccc(-c3cccc(C#Cc4ccc5[nH]ncc5c4)n3)n1)C2 [Ex. 18, 5-((6-(2-(5-Methoxyisoindolin-2-yl)pyrimidin-4-yl)pyridin-2-yl)ethynyl)-1H-indazole] | 25 |  | 0.12 | 
8 | Fc1ccc2c(c1)CN(c1nccc(-c3cccc(C#Cc4cc(F)c5[nH]ncc5c4)n3)n1)C2 [Ex. 21, 7-Fluoro-5-((6-(2-(5-fluoroisoindolin-2-yl)pyrimidin-4-yl)pyridin-2-yl)ethynyl)-1H-indazole] | > 30 | >4.4 |  | 6.8
9 | COc1ccc2c(c1)CN(c1nccc(-c3nccc(C#Cc4ccc5c(N)nccc5c4)n3)n1)C2 [Ex. 4, 6-((2′-(5-Methoxyisoindolin-2-yl)-[2,4′-bipyrimidin]-4-yl)ethynyl)isoquinolin-1-amine] | > 30 | >3.66 | 8.2 | 
10 | COc1cccc(C2CCN(c3nccc(-c4nccc(C#Cc5ccc6[nH]ncc6c5)n4)n3)C2)c1 (stereo not shown) [Ex. 70, 5-((2′-(3-(3-Methoxyphenyl)pyrrolidin-1-yl)-[2,4′-bipyrimidin]-4-yl)ethynyl)-1H-indazole] | 6.1 | 27.7 | 0.22 | 
11 | Oc1cc2c(cn1)CN(c1nccc(-c3nccc(C#Cc4ccc5[nH]ncc5c4)n3)n1)C2 [Ex. 16, 2-(4-((1H-Indazol-5-yl)ethynyl)-[2,4′-bipyrimidin]-2′-yl)-2,3-dihydro-1H-pyrrolo[3,4-c]pyridin-6-ol] | > 6 | >23 | 0.26 | 
12 | CN1CCN(c2ccc3c(c2)CN(c2nccc(-c4cccc(C#Cc5ccc6[nH]ncc6c5)n4)n2)C3)CC1 [Ex. 23, 5-((6-(2-(5-(4-Methylpiperazin-1-yl)isoindolin-2-yl)pyrimidin-4-yl)pyridin-2-yl)ethynyl)-1H-indazole] | > 30 | >45 | 0.66 | 
13 | C(#Cc1ccnc(-c2ccnc(N3Cc4c[nH]nc4C3)n2)n1)c1ccc2[nH]ncc2c1 [Ex. 35, 5-((2′-(2,6-Dihydropyrrolo[3,4-c]pyrazol-5(4H)-yl)-[2,4′-bipyrimidin]-4-yl)ethynyl)-1H-indazole] | > 30 | >417 | 0.072 | 
14 | O=C(COc1ccc2c(c1)CN(c1nccc(-c3nccc(C#Cc4ccc5[nH]ncc5c4)n3)n1)C2)NC1CC1 [Ex. 46, 2-((2-(4-((1H-Indazol-5-yl)ethynyl)-[2,4′-bipyrimidin]-2′-yl)isoindolin-5-yl)oxy)-N-cyclopropylacetamide trifluoroacetate] | 0.13 | 56.5 | 0.0023 | 
15 | COCCN1CCN(c2cc3c(cn2)CN(c2nccc(-c4nccc(C#Cc5ccc6[nH]ncc6c5)n4)n2)C3)CC1 [Ex. 36, 5-((2′-(6-(4-(2-Methoxyethyl)piperazin-1-yl)-1,3-dihydro-2H-pyrrolo[3,4-c]pyridin-2-yl)-[2,4′-bipyrimidin]-4-yl)ethynyl)-1H-indazole trifluoroacetate salt] | 0.069 | 7.26 | 0.0095 | 
16 | C(#Cc1ccnc(-c2ccnc(N3Cc4ccccc4C3)n2)n1)c1ccc2[nH]ncc2c1 [Ex. 12, 5-((2′-(Isoindolin-2-yl)-[2,4′-bipyrimidin]-4-yl)ethynyl)-1H-indazole] | 0.25 | 139 | 0.0018 | 
17 | C(#Cc1ccnc(-c2ccnc(N3CC(c4ccccc4)C3)n2)n1)c1ccc2[nH]ncc2c1 [Ex. 48, 5-((2′-(3-Phenylazetidin-1-yl)-[2,4′-bipyrimidin]-4-yl)ethynyl)-1H-indazole trifluoroacetate] | 5.5 | 36.7 | 0.15 | 
18 | C(#Cc1ccnc(-c2ccnc(N3CCC(c4ccccc4)CC3)n2)n1)c1ccc2[nH]ncc2c1 [Ex. 55, 5-((2′-(4-Phenylpiperidin-1-yl)-[2,4′-bipyrimidin]-4-yl)ethynyl)-1H-indazole] | 26 | 28.9 | 0.9 | 
19 | COc1ccc2c(c1)CN(c1nccc(-c3cccc(C#Cc4cc(F)c5[nH]ncc5c4)n3)n1)C2 [Ex. 19, 7-Fluoro-5-((6-(2-(5-methoxyisoindolin-2-yl)pyrimidin-4-yl)pyridin-2-yl)ethynyl)-1H-indazole] | > 30 | >10.7 |  | 2.8
20 | Clc1ccc(N2CCN(c3nccc(-c4nccc(C#Cc5ccc6[nH]ncc6c5)n4)n3)CC2)cc1 [Ex. 61, 5-((2′-(4-(4-Chlorophenyl)piperazin-1-yl)-[2,4′-bipyrimidin]-4-yl)ethynyl)-1H-indazole] | 22 | 44.9 | 0.49 | 
21 | O=C(O)c1ccc(C2CN(c3nccc(-c4nccc(C#Cc5ccc6[nH]ncc6c5)n4)n3)C2)cc1 [Ex. 51, 4-(1-(4-((1H-Indazol-5-yl)ethynyl)-[2,4′-bipyrimidin]-2′-yl)azetidin-3-yl)benzoic acid] | 11 | 73 | 0.15 | 
22 | Fc1cc(C#Cc2ccc3[nH]ncc3c2)cc(-c2ccnc(N3Cc4ccc(F)cc4C3)n2)c1 [Ex. 25, 5-((3-Fluoro-5-(2-(5-fluoroisoindolin-2-yl)pyrimidin-4-yl)phenyl)ethynyl)-1H-indazole] | > 30 |  | > 30 | 
23 | COc1ccc2c(c1)CN(c1nccc(-c3nccc(C#Cc4cn[nH]c4)n3)n1)C2 [Ex. 2, 2-(4-((1H-Pyrazol-4-yl)ethynyl)-[2,4′-bipyrimidin]-2′-yl)-5-methoxyisoindoline] | > 30 |  | > 30 | 
24 | C(#Cc1ccnc(-c2ccnc(N3CCn4cnnc4C3)n2)n1)c1ccc2[nH]ncc2c1 [Ex. 59, 7-(4-((1H-Indazol-5-yl)ethynyl)-[2,4′-bipyrimidin]-2′-yl)-5,6,7,8-tetrahydro-[1,2,4]triazolo[4,3-a]pyrazine] | 16 | 21.3 | 0.75 | 
25 | Fc1ccc2c(c1)CN(c1nccc(-c3nccc(C#Cc4ccc5[nH]ncc5c4)n3)n1)C2 [Ex. 13, 5-((2′-(5-Fluoroisoindolin-2-yl)-[2,4′-bipyrimidin]-4-yl)ethynyl)-1H-indazole] | 9.2 | 1164 | 0.0079 | 
26 | Fc1ccc(C2CCN(c3nccc(-c4nccc(C#Cc5ccc6[nH]ncc6c5)n4)n3)C2)cc1 (stereo not shown) [Ex. 71, 5-((2′-(3-(4-Fluorophenyl)pyrrolidin-1-yl)-[2,4′-bipyrimidin]-4-yl)ethynyl)-1H-indazole] | 13 | 36.1 | 0.36 | 
27 | Fc1cc(C#Cc2ccc3[nH]ncc3c2)cc(-c2ccnc(N3Cc4ccc(Br)cc4C3)n2)c1 [Ex. 27, 5-((3-(2-(5-Bromoisoindolin-2-yl)pyrimidin-4-yl)-5-fluorophenyl)ethynyl)-1H-indazole] | > 30 |  | > 30 | 
28 | Brc1ccc2c(c1)CN(c1nccc(-c3nccc(C#Cc4ccc5[nH]ncc5c4)n3)n1)C2 [Ex. 30, 5-((2′-(5-Bromoisoindolin-2-yl)-[2,4′-bipyrimidin]-4-yl)ethynyl)-1H-indazole] | 0.77 | 132.8 | 0.0058 | 
